The record followed here is US20140357655A1, “SPIROINDOLINE DERIVATIVES AS GONADOTROPIN- RELEASING HORMONE RECEPTOR ANTAGONISTS” (Bayer Intellectual Property GmbH, priority 2012, published 2014).

This assay addresses T1, human GnRH receptor (Homo sapiens, UniProt P30968).
T1 sequence (P30968 1-328): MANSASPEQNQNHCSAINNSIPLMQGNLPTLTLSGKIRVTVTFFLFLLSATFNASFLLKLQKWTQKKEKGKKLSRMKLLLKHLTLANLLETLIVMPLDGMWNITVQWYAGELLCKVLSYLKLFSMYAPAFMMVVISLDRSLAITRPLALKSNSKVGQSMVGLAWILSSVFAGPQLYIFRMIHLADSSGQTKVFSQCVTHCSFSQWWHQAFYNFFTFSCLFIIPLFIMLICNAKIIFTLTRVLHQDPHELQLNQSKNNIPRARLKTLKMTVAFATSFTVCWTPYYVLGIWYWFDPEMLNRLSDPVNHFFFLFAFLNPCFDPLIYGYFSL
The assay can be described thus: IP-One HTRF assay with buserelin (at EC80) stimulation. The format is cell-based. The note with it: CHO cells stably expressing human GnRH receptor, read-out: Potency in IP-One HTRF assay, given as IC50. Summed up:
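Ten-point duplicate titrations (20 μM to 1 nM) were fitted by 4-parameter model to normalized 665/620 nm HTRF ratios, 0% = no compound, 100% = no agonist. Assay measured IP1 accumulation in human GnRH-R CHO cells stimulated 1 h at 37° C with EC80 buserelin, then lysed 1 h at 22° C.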
Take `O=C(Nc1ccon1)c1ccc2c(c1)C1(CCS(=O)(=O)CC1)C(C1CC1)N2S(=O)(=O)c1ccc(F)cc1` (single isomer, unassigned) [Example 63.1, 2-cyclopropyl-1-[(4-fluorophenyl)sulfonyl]-N-(1,2-oxazol-3-yl)-1,2,2′,3′,5′,6′-hexahydrospiro[indole-3,4′-thiopyran]-5-carboxamide 1′,1′-dioxide]: the IC50 – broadly, the concentration needed to halve the response being measured – came to 88 nM. With `O=C(Nc1ccon1)c1ccc2c(c1)C1(CCS(=O)(=O)CC1)C(C1CC1)N2S(=O)(=O)c1ccc(F)cc1` (single isomer, unassigned) [Example 63.2, 2-cyclopropyl-1-[(4-fluorophenyl)sulfonyl]-N-(1,2-oxazol-3-yl)-1,2,2′,3′,5′,6′-hexahydrospiro[indole-3,4′-thiopyran]-5-carboxamide 1′,1′-dioxide], the IC50 is 3430 nM. Consider `CN(C)C(=NS(=O)(=O)c1cccc(NC(=O)c2ccc3c(c2)C2(CCS(=O)(=O)CC2)C(C2CC2)N3S(=O)(=O)c2ccc(F)cc2)c1)N(C)C` (single isomer, unassigned) [Example 64.1, N-(3-{[bis(dimethylamino)methylidene]sulfamoyl}phenyl)-2-cyclopropyl-1-[(4-fluorophenyl)sulfonyl]-1,2,2′,3′,5′,6′-hexahydrospiro[indole-3,4′-thiopyran]-5-carboxamide 1′,1′-dioxide], for which the IC50 was 4.6 nM.

`CN(C)C(=NS(=O)(=O)c1cccc(NC(=O)c2ccc3c(c2)C2(CCS(=O)(=O)CC2)C(C2CC2)N3S(=O)(=O)c2ccc(F)cc2)c1)N(C)C` (single isomer, unassigned) [Example 64.2, N-(3-{[bis(dimethylamino)methylidene]sulfamoyl}phenyl)-2-cyclopropyl-1-[(4-fluorophenyl)sulfonyl]-1,2,2′,3′,5′,6′-hexahydrospiro[indole-3,4′-thiopyran]-5-carboxamide 1′,1′-dioxide]: the IC50 is 66 nM. Turning to `O=C(NCc1ccccc1C(F)F)c1ccc2c(c1)C1(CCS(=O)(=O)CC1)C(C1CC1)N2S(=O)(=O)c1ccc(F)cc1` (single isomer, unassigned) [Example 68.2, 2-cyclopropyl-N-[2-(difluoromethyl)benzyl]-1-[(4-fluorophenyl)sulfonyl]-1,2,2′,3′,5′,6′-hexahydrospiro[indole-3,4′-thiopyran]-5-carboxamide 1′,1′-dioxide], the IC50 was 143 nM. Consider `N#Cc1ccc(S(=O)(=O)N2c3ccc(C(=O)NCc4ncccc4Cl)cc3C3(CCS(=O)(=O)CC3)C2C2CC2)cc1` (single isomer, unassigned) [Example 70.1, N-[(3-chloropyridin-2-yl)methyl]-1-[(4-cyanophenyl)sulfonyl]-2-cyclopropyl-1,2,2′,3′,5′,6′-hexahydrospiro[indole-3,4′-thiopyran]-5-carboxamide 1′,1′-dioxide], for which the IC50 was 33 nM. As to `N#Cc1ccc(S(=O)(=O)N2c3ccc(C(=O)NCc4ncccc4Cl)cc3C3(CCS(=O)(=O)CC3)C2C2CC2)cc1` (single isomer, unassigned) [Example 70.2, N-[(3-chloropyridin-2-yl)methyl]-1-[(4-cyanophenyl)sulfonyl]-2-cyclopropyl-1,2,2′,3′,5′,6′-hexahydrospiro[indole-3,4′-thiopyran]-5-carboxamide 1′,1′-dioxide], the half-inhibitory concentration (IC50) was found to be 202 nM. As for `N#Cc1ccc(S(=O)(=O)N2c3ccc(C(=O)Nc4cncc(Cl)c4)cc3C3(CCS(=O)(=O)CC3)C2C2CC2)cc1` (single isomer, unassigned) [Example 71.1, N-(5-chloropyridin-3-yl)-1-[(4-cyanophenyl)sulfonyl]-2-cyclopropyl-1,2,2′,3′,5′,6′-hexahydrospiro[indole-3,4′-thiopyran]-5-carboxamide 1′,1′-dioxide], the figure is 49 nM. Take `N#Cc1ccc(S(=O)(=O)N2c3ccc(C(=O)Nc4cncc(Cl)c4)cc3C3(CCS(=O)(=O)CC3)C2C2CC2)cc1` (single isomer, unassigned) [Example 71.2, N-(5-chloropyridin-3-yl)-1-[(4-cyanophenyl)sulfonyl]-2-cyclopropyl-1,2,2′,3′,5′,6′-hexahydrospiro[indole-3,4′-thiopyran]-5-carboxamide 1′,1′-dioxide]: the IC50 turned out to be 1630 nM. As for `N#Cc1ccc(S(=O)(=O)N2c3ccc(C(=O)NCc4ccccc4C(F)(F)F)cc3C3(CCS(=O)(=O)CC3)C2C2CC2)cc1` (single isomer, unassigned) [Example 72.1, 1-[(4-cyanophenyl)sulfonyl]-2-cyclopropyl-N-[2-(trifluoromethyl)benzyl]-1,2,2′,3′,5′,6′-hexahydrospiro[indole-3,4′-thiopyran]-5-carboxamide 1′,1′-dioxide], the 50% inhibitory concentration (IC50) amounted to 11 nM. As to `N#Cc1ccc(S(=O)(=O)N2c3ccc(C(=O)NCc4ccccc4C(F)(F)F)cc3C3(CCS(=O)(=O)CC3)C2C2CC2)cc1` (single isomer, unassigned) [Example 72.2, 1-[(4-cyanophenyl)sulfonyl]-2-cyclopropyl-N-[2-(trifluoromethyl)benzyl]-1,2,2′,3′,5′,6′-hexahydrospiro[indole-3,4′-thiopyran]-5-carboxamide 1′,1′-dioxide], the concentration for half-maximal inhibition (IC50) came out at 403 nM. In the case of `N#Cc1cccc(S(=O)(=O)N2c3ccc(C(=O)NCc4ccccc4Cl)cc3C3(CCS(=O)(=O)CC3)C2C2CC2)c1` (single isomer, unassigned) [Example 76.1, N-(2-chlorobenzyl)-1-[(3-cyanophenyl)sulfonyl]-2-cyclopropyl-1,2,2′,3′,5′,6′-hexahydrospiro[indole-3,4′-thiopyran]-5-carboxamide 1′,1′-dioxide], the IC50 came to 21 nM.

For the molecule `N#Cc1cccc(S(=O)(=O)N2c3ccc(C(=O)NCc4ccccc4Cl)cc3C3(CCS(=O)(=O)CC3)C2C2CC2)c1` (single isomer, unassigned) [Example 76.2, N-(2-chlorobenzyl)-1-[(3-cyanophenyl)sulfonyl]-2-cyclopropyl-1,2,2′,3′,5′,6′-hexahydrospiro[indole-3,4′-thiopyran]-5-carboxamide 1′,1′-dioxide], the 50% inhibitory concentration (IC50) worked out at 689 nM.

Take `N#Cc1cccc(S(=O)(=O)N2c3ccc(C(=O)Nc4cncc(Cl)c4)cc3C3(CCS(=O)(=O)CC3)C2C2CC2)c1` (single isomer, unassigned) [Example 77.1, N-(5-chloropyridin-3-yl)-1-[(3-cyanophenyl)sulfonyl]-2-cyclopropyl-1,2,2′,3′,5′,6′-hexahydrospiro[indole-3,4′-thiopyran]-5-carboxamide 1′,1′-dioxide]: the half-maximal inhibitory concentration (IC50) worked out at 54 nM. In the case of `N#Cc1cccc(S(=O)(=O)N2c3ccc(C(=O)Nc4cncc(Cl)c4)cc3C3(CCS(=O)(=O)CC3)C2C2CC2)c1` (single isomer, unassigned) [Example 77.2, N-(5-chloropyridin-3-yl)-1-[(3-cyanophenyl)sulfonyl]-2-cyclopropyl-1,2,2′,3′,5′,6′-hexahydrospiro[indole-3,4′-thiopyran]-5-carboxamide 1′,1′-dioxide], the half-maximal inhibitory concentration (IC50) was 963 nM. In the case of `N#Cc1cccc(S(=O)(=O)N2c3ccc(C(=O)NCc4ncccc4C(F)(F)F)cc3C3(CCS(=O)(=O)CC3)C2C2CC2)c1` (single isomer, unassigned) [Example 79.1, 1-[(3-cyanophenyl)sulfonyl]-2-cyclopropyl-N-{[3-(trifluoromethyl)pyridin-2-yl]methyl}-1,2,2′,3′,5′,6′-hexahydrospiro[indole-3,4′-thiopyran]-5-carboxamide 1′,1′-dioxide], the IC50 amounted to 54 nM.

On to `N#Cc1cccc(S(=O)(=O)N2c3ccc(C(=O)NCc4ncccc4C(F)(F)F)cc3C3(CCS(=O)(=O)CC3)C2C2CC2)c1` (single isomer, unassigned) [Example 79.2, 1-[(3-cyanophenyl)sulfonyl]-2-cyclopropyl-N-{[3-(trifluoromethyl)pyridin-2-yl]methyl}-1,2,2′,3′,5′,6′-hexahydrospiro[indole-3,4′-thiopyran]-5-carboxamide 1′,1′-dioxide], for which the IC50 was determined as 1020 nM. As to `N#Cc1cccc(S(=O)(=O)N2c3ccc(C(=O)Nc4ccon4)cc3C3(CCS(=O)(=O)CC3)C2C2CC2)c1` (single isomer, unassigned) [Example 80.1, 1-[(3-cyanophenyl)sulfonyl]-2-cyclopropyl-N-(1,2-oxazol-3-yl)-1,2,2′,3′,5′,6′-hexahydrospiro[indole-3,4′-thiopyran]-5-carboxamide 1′,1′-dioxide], the IC50 was found to be 315 nM.

For `N#Cc1cccc(S(=O)(=O)N2c3ccc(C(=O)Nc4ccon4)cc3C3(CCS(=O)(=O)CC3)C2C2CC2)c1` (single isomer, unassigned) [Example 80.2, 1-[(3-cyanophenyl)sulfonyl]-2-cyclopropyl-N-(1,2-oxazol-3-yl)-1,2,2′,3′,5′,6′-hexahydrospiro[indole-3,4′-thiopyran]-5-carboxamide 1′,1′-dioxide], the IC50 was above 20000 nM. Consider `COC(=O)c1cccc(NC(=O)c2ccc3c(c2)C2(CCS(=O)(=O)CC2)C(C2CC2)N3S(=O)(=O)c2cccc(OC(F)F)c2)c1` (single isomer, unassigned) [Example 89.1, methyl 3-{[(2-cyclopropyl-1-{[3-(difluoromethoxy)phenyl]sulfonyl}-1′,1′-dioxido-1,2,2′,3′,5′,6′-hexahydrospiro[indole-3,4′-thiopyran]-5-yl)carbonyl]amino}benzoate], for which the IC50 was 63 nM.
